Results as given in patent US12673034B2, “Peptides, compounds, compositions and methods for inhibiting SOX9” (CRITICAL OUTCOME TECHNOLOGIES INC., priority 2019, dated 2026).
Positions count from the first letter of the chain named. Like-named read-outs stand apart in the source and are kept apart here.

Assays:
SOX9 [1] = molecular target: T1, SOX9 (Rattus norvegicus, UniProt F1LYL9); experiment: Q-PCR of SOX9 and SOX9 target gene expression in primary rat astrocyte cultures; type: cell-based; conditions: 10 μM
T1 construct: endogenous in cells; host or cells: primary rat astrocyte cultures
T1 sequence (F1LYL9 1-507): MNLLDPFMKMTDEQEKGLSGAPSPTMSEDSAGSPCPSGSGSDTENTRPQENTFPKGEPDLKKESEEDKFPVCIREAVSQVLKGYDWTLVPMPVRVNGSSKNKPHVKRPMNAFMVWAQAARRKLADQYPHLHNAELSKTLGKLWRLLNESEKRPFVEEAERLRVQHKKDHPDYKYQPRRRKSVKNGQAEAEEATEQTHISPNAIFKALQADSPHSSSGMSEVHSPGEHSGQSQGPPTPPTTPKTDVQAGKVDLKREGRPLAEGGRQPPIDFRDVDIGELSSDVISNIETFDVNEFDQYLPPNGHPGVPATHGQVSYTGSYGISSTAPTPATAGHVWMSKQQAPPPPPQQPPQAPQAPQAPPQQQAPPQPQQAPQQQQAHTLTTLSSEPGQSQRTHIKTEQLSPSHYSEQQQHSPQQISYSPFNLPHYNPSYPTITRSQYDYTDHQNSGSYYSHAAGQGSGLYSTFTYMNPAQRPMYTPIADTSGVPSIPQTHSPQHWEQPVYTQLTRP
Procedure: FIG. 2 graphically depicts results from treatment of two-week old rat astrocytes for 48 h (hours) with 10 μM SOX-DIMER (white), which show decreased SOX9 target gene expression compared to control (FLAG-Tat) peptide-treated cultures (black) (* indicates statistical significance P<0.05, two-tailed t-test; N=4);
Primary astrocyte cultures were treated with 10 μM SOX-DIMER peptide or of a control peptide (FLAG-Tat) for 48 h and then harvested RNA.
(§1) To identify small molecule inhibitors of SOX9 design efforts focused on the septameric peptide sequence (IREAVSQ, SEQ ID NO:1, underlined in the SOX-DIMER sequence given above) identified as a subregion of the known SOX9 dimerization domain with a high likelihood of direct participation in dimerization. This prediction was based on the position of the human mutation that causes the skeletal but not the sex reversal abnormalities of campomelic dyskplasia (Bernard et al 2003). A computational screen of ˜12 million compounds was performed to identify small molecules predicted to interfere with SOX9 dimerization, based on the physical-chemical properties of the SOX-DIMER peptide motif.

SOX9 [2] = molecular target: T2, SOX9 (Mus musculus, UniProt Q04887); experiment: SOX9 target gene expression in primary mouse astrocyte cultures; type: cell-based; parameters: primary mouse and rat astrocyte cultures; endogenous in cells; host or cells: primary mouse astrocyte cultures; conditions: primary mouse astrocyte cultures (FIG. 3)
T2 sequence (Q04887 1-507): T1 sequence (F1LYL9 1-507) with S314T, P368Q, Q369P, N427S, T432P, T441A

spinal cord injured rats = experiment: Locomotor recovery (hind limb function, open field test, BBB score) after thoracic SCI; type: in vivo; conditions: rat, T9 200 kdyne SCI, intrathecal approximately 400 μg/Kg/day
Procedure: In a longer-term study, compound 1 (approximately 400 μg/Kg/day) or vehicle was again delivered intrathecally to rats immediately after a T9, 200 kdyne SCI, and hind limb function was evaluated twice per week by an observer blinded to treatment group in an open field test for […] (FIG. 5). […] By day 56 the compound 1-treated rats achieved average locomotor BBB scores (Basso et al 1995) of 12.4±0.8 indicating consistent weight supported plantar placement and occasional forelimb/hind limb coordination while the vehicle-treated rats only achieved an average locomotor BBB score of 10.4±0.7, indicating occasional weight supported planter placement with no forelimb/hind limb coordination.

[3] = tested on: CSPG levels in the injured rat spinal cord; experiment: CSPG levels in injured rat spinal cord, biotinylated-WFA staining; type: in vivo; conditions: T9 200 kdyne SCI, intrathecal pump approximately 400 μg/Kg/day for 4 weeks, sections caudal to the lesion, vs vehicle
Procedure: To assess the effect of compound 1 on CSPG levels in the injured rat spinal cord, compound 1 or vehicle was delivered by an intrathecal pump delivering compound 1 at approximately 400 μg/Kg/day for 4 weeks starting immediately after a 200 kdyne T9 thoracic SCI. This dose was predicted to result in a concentration of compound 1 of between 10 and 30 μM based on an estimated cerebrospinal fluid volume of 580 μL (Murtha et al 2014) and a turnover rate of about 12-13 times per day (Simon et al 1995).

SOX9 [4] = molecular target: T2, SOX9; experiment: SOX9 target gene expression in chondrogenic cell line ATDC5; type: cell-based; parameters: in the chondrogenic cell line ATDC5; endogenous in cells; host or cells: ATDC5 chondrogenic cell line
From the text: as §1
Some of the inhibitor compounds were also tested on ATDC5 cells for their effect on SOX9 target gene expression by q-PCR (aggrecan data is shown in FIG. 11) and on LX-2 (human hepatocyte (stellate cells) cells for collagen gene expression (associated with liver fibrosis), as shown in FIG. 12.

[5] = Spinal cord concentration after intravenous injection, UPLC coupled to mass spectrometry; type: in vivo, rat
Procedure: Compound 1 was delivered intrathecally as it was initially unknown the inhibitory compound could cross the blood brain barrier. To resolve this issue a subsequent study was carried out in which control and T9 spinal cord injured rats were given intravenous injections of compound 1 (1 or 10 nmol/g) or of vehicle at 24 and 48 h after SCI and sacrificed 24 h later. […] Compound 1 was even found in the spinal cords after dosing uninjured controls (FIG. 6).
Using a standard curve, the concentration of compound 1 in the injured spinal cord after a 10 nmol/g iv injection was determined to be 2.7 μM at the lesion epicenter, 1.9 μM in the lumbar cord and 1.02 μM in the uninjured cord.

SOX9 target gene expression (SOX9 [2])	SOX9 target gene expression (SOX9 [4])	SOX9 target gene expression (SOX9 [1]; primary rat astrocyte cultures, 48 h vs vehicle (FIG. 3))	reduction of spinal cord concentrations after 1 nmol/g relative to 10 nmol/g ([5]; rat, 1 nmol/g iv injections)	Compound	expression of SOX9 and SOX9 target genes (XT-1, XT-2, Hapln1, Collagen 2a1, GFAP, aggrecan, brevican) (SOX9 [1]; 48 h, primary astrocyte cultures, vs control peptide FLAG-Tat, Q-PCR (FIG. 2))	average locomotor BBB score (spinal cord injured rats; day 56)	hind limb function in open field test (spinal cord injured rats; vs vehicle)	reduction in CSPG levels (WFA staining) [3]	concentration at 24 h after the last injection ([5]; lesion epicenter, T9 spinal cord injured rat, 10 nmol/g iv at 24 and 48 h after SCI, sacrificed 24 h later, read-out: concentration in spinal cord at the lesion epicenter)	concentration at 24 h after the last injection ([5]; lumbar enlargement (distal to the lesion), T9 spinal cord injured rat, 10 nmol/g iv at 24 and 48 h after SCI, sacrificed 24 h later, read-out: concentration in the lumbar cord)	penetration of the blood-spinal cord barrier ([5]; rat, 10 nmol/g iv, control or spinal cord injured)	concentration at 24 h after the last injection ([5]; uninjured spinal cord, uninjured control rat, 10 nmol/g iv, read-out: concentration in the uninjured cord)
–	–	–	–	SOX-DIMER: fusion between the SOX9 dimerization motif (DKFPVCIREAVSQVLKGYDW, SEQ ID NO. 2) and the protein transduction domain of the HIV-1 Tat protein (DKFPVCIREAVSQVLKGYDWKYGRKKRRQRRR)	significantly reducing the expression of SOX9 and SOX9 target genes	–	–	–	–	–	–	–
decrease SOX9 target gene expression	decrease SOX9 target gene expression	decrease SOX9 target gene expression	10 fold	COc1ccc(C(=O)N2CCN(C)CC2)cc1NC(=O)COc1cc(C)ccc1C(C)C [compound 1]	–	12.4±0.8	statistically significant improvement	3 fold	2700 nM	1900 nM	can penetrate the blood-spinal cord barrier	1020 nM
